Patent US12241090B2, “Methods and systems for converting precursor cells into gastric tissues through directed differentiation” (CHILDREN'S HOSPITAL MEDICAL CENTER, priority 2014, dated 2025)

Legend:
[1] = test system: human antral gastric organoids (hGOs); assay: Growth, morphogenesis and endocrine cell specification of human antral gastric organoids at different EGF concentrations; assay type: cell-based
Procedure: (§1) Following DE induction, cells were treated for three days with growth factors/antagonists in RPMI 1640 with 2.0% dFBS. […] CHIR99021 is a small molecule that stimulates the Wnt signaling pathway. RA (2 μM; Sigma Aldrich) is added on the final day. Three-dimensional growth and antral specification. Posterior foregut spheroids were embedded in Matrigel (BD Biosciences) as previously described^10, 12 and subsequently grown in Advanced DMEM/F12 (Invitrogen) supplemented with N2 (Invitrogen), B27 (Invitrogen), L-glutamine, 10 μM HEPES, penicillin/streptomycin, and EGF (100 ng ml^−1; R&D Systems). For antral specification, RA and noggin were added for the first three days of three-dimensional growth. For endocrine cell specification, the EGF concentration is lowered to 10 ng ml^−1 at day 30.
(§2) The spheroids were transferred to a three-dimensional in vitro culture system as previously described5, 10, 12. Briefly, spheroids were collected, resuspended in 50 μl Matrigel (BD Biosciences), and plated in a three-dimensional droplet. After Matrigel was allowed to solidify for 10-15 minutes in a tissue culture incubator, spheroids were overlaid with gut media: Advanced DMEM/F12 with N2 (Invitrogen), B27 (Invitrogen), L-glutamine, 10 μM HEPES, penicillin/streptomycin, and EGF (100 ng ml^−1; R&D Systems). For the first three days, RA and Noggin were added to the gut media. Media was replaced every 3-4 days, as necessary. At day 20, organoids were collected and re-plated in fresh Matrigel at dilution of ˜1:12.
All tissues were fixed in 4% paraformaldehyde for either one hour at room temperature for frozen processing or overnight at 4° C. for paraffin processing. For frozen sections, tissue was protected in 30% sucrose overnight at 4° C., then embedded in OCT (Tissue-Tek), and cut at 10 μm. For paraffin sections, tissue was processed through a graded ethanol series, followed by xylene, and then embedded in paraffin and cut at 7 μm. Tissue culture cells were fixed for 15 minutes at room temperature and stained directly. For staining, frozen slides were thawed to room temperature and rehydrated in PBS, while paraffin slides were deparaffinized and subjected to antigen retrieval. Slides were blocked in 5% normal donkey serum (Jackson Immuno Research) in PBS plus 0.5% Triton-X for 30 minutes at room temperature. Primary antibodies (listed in Methods Table 1) were diluted in blocking buffer and incubated overnight at 4° C. Slides were washed in PBS and incubated with secondary antibody for one hour at room temperature, and coverslips were mounted using Fluoromount-G (Southern Biotech). Confocal images were captured on a Nikon A1Rsi inverted confocal microscope.
(§3) Analysis was performed using the ΔΔCT method.

[2] = test system: posterior foregut spheroids; assay: Three-dimensional culture of posterior foregut spheroids with RA, qPCR of organ lineage markers; assay type: cell-based, human; conditions: RA (2 μM) for 72 hours (days 6-9)
Procedure: as §1
as §2, with “Media was replaced every 3-4 days, as necessary. At day 20, organoids were collected and re-plated in fresh Matrigel at dilution of ˜1:12.” left out

[3] = test system: hPSC-derived foregut spheroids; assay: Fundus specification protocol: Wnt signaling at days 6-9 of gastric organoid differentiation, qPCR; assay type: cell-based, human; conditions: CHIR 2 uM
Procedure: Next, the function of Wnt signaling in the regulation of fundus-antrum patterning at days 6-9 of the gastric organoid differentiation protocol was tested. Addition of Wnt3a (at 100 ng/mL and 500 ng/mL) had no effect on spheroid gene expression, but it […] expression of the Wnt target gene Axin2. Thus, the effects of the small molecule CHIR99021 (CHIR; 2 uM) were tested. CHIR99021 stimulates Wnt signaling in a receptor-independent fashion.
as §3

[4] = test system: hPSC-derived definitive endoderm (DE) cultures; assay: Endoderm patterning of hPSC-derived DE cultures with growth factors/antagonists, qPCR and immunofluorescence; assay type: cell-based, human; conditions: CHIR 2 μM, compared with recombinant WNT3A
Procedure: Following DE induction, cells were treated for three days with growth factors/antagonists in RPMI 1640 with 2.0% dFBS. […] RA (2 μM; Sigma Aldrich) is added on the final day. Three-dimensional growth and antral specification. Posterior foregut spheroids were embedded in Matrigel (BD Biosciences) as previously described^10, 12 and subsequently grown in Advanced DMEM/F12 (Invitrogen) supplemented with N2 (Invitrogen), B27 (Invitrogen), L-glutamine, 10 μM HEPES, penicillin/streptomycin, and EGF (100 ng ml^−1; R&D Systems). For antral specification, RA and noggin were added for the first three days of three-dimensional growth. For endocrine cell specification, the EGF concentration is lowered to 10 ng ml^−1 at day 30.
The media was changed every day.

Molecule: EGF: growth factor EGF (R&D Systems) added to gut media
- endocrine cell formation ([1]; EGF 10 ng ml^−1 from day 30-34): abundance of endocrine cells
- organoid diameter ([1]; EGF 100 ng mL^−1, over 3-4 weeks, from spheroids <100 μm): 2-4 mm
- endocrine cells per organoid ([1]; EGF 100 ng ml^−1, 34-day hGOs): < 1 endocrine cell per organoid
- expression of proendocrine transcription factor NEUROG3 ([1]; high EGF (100 ng ml^−1), qPCR at day 34): inhibited

Molecule: CC1=C(/C=C/C(C)=C/C=C/C(C)=C/C(=O)O)C(C)(C)CCC1 [RA, retinoic acid]
- increase in PDX1 mRNA levels [2]: > 100 fold

Molecule: Cc1c[nH]c(-c2cnc(NCCNc3ccc(C#N)cn3)nc2-c2ccc(Cl)cc2Cl)n1 [CHIR99021]
- Pdx1 expression levels [3]: robust repression
- expression of fundus-specific markers IRX3 and IRX5 [3]: induced high levels
- expression of the intestinal marker Cdx2 [3]: did not induce
- posteriorizing effects on endoderm [4]: same posteriorizing effects as recombinant WNT3A
